Patent US20250320193A1, “OXOISOINDOLINYL SUBSTITUTED PIPERIDINEDIONE DERIVATIVE AND USE THEREOF” (GLUETACS THERAPEUTICS (SHANGHAI) CO., LTD., priority 2022, published 2025)
pIC50: −log10 of the molar value.

Legend:
[1] = biological target: human Cereblon WT GST-tagged protein (Homo sapiens (Human), UniProt Q96SW2); experiment: CRBN-binding affinity, HTRF (CEREBLON BINDING kit, CISBIO); settings: HTRF inhibitory activity
In short: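 Compounds were mixed with GST-tagged human Cereblon WT protein, then with Thalidomide-Red tracer and GST Eu antibody, and binding was read by HTRF. Inhibition rate was calculated from 620 nm emission relative to blank control wells (no protein) and solvent control wells.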

GSPT1 = GSPT1 (Homo sapiens (Human), UniProt P15170+Q96SW2); experiment: Western blot, substrate protein expression in hPBMC: GSPT1; format: cell-based; settings: hPBMC, compound 500 nM, 24 hours, Western blot
Sequence of GSPT1 (P15170 whole entry): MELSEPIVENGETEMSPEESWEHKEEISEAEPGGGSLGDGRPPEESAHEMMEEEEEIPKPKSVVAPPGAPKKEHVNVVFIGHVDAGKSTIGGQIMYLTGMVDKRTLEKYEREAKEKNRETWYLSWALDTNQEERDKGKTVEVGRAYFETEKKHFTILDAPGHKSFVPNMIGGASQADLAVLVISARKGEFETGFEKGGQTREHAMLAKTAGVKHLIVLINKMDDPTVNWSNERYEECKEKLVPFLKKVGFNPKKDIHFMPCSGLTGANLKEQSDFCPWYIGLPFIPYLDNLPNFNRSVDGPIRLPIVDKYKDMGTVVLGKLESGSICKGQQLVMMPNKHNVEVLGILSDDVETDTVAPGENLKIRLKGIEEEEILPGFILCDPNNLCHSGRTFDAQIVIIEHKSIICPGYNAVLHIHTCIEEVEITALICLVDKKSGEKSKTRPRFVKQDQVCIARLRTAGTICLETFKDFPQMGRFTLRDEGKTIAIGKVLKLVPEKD
Sequence of GSPT1 (Q96SW2 whole entry): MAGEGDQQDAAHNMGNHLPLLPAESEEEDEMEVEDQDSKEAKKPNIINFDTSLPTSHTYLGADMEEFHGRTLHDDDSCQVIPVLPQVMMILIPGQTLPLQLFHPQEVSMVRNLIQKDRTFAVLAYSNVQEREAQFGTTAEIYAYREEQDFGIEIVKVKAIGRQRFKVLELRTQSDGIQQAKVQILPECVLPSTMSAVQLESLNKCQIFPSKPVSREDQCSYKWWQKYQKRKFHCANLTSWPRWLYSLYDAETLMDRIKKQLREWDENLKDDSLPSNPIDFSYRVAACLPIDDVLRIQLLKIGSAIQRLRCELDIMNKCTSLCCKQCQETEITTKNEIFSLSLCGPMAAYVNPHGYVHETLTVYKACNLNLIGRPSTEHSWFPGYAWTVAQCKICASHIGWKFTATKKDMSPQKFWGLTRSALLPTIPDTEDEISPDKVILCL
Sequence of GSPT1 (Q16531 whole entry partner): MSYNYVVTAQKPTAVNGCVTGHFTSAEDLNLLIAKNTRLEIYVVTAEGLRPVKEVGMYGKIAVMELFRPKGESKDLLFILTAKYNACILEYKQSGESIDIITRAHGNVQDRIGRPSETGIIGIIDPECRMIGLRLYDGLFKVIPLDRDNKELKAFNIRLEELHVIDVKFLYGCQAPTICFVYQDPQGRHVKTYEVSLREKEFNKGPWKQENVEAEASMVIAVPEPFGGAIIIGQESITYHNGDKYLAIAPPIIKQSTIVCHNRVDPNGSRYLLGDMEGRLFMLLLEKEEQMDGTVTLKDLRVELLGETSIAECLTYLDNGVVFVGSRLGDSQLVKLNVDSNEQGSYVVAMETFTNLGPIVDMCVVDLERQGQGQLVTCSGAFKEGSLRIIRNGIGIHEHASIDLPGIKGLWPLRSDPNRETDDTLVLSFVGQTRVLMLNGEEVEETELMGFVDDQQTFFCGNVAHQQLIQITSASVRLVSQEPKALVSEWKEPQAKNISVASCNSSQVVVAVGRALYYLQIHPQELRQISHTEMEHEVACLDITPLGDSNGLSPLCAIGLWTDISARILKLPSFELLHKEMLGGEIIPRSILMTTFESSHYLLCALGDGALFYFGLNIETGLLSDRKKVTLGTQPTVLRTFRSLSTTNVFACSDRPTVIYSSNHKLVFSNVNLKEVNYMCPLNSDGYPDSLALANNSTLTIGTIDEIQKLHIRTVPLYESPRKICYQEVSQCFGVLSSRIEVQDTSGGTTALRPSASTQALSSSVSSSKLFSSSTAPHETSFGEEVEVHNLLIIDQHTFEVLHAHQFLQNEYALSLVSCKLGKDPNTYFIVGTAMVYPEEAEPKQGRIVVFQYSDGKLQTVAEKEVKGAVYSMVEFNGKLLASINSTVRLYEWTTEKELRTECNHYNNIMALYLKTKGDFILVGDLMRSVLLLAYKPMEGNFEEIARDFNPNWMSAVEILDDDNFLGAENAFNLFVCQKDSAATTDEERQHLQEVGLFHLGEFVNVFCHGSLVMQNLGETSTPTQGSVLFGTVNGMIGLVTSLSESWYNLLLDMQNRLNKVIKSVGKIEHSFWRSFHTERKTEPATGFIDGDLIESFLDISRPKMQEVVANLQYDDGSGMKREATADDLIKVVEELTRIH
In short: (§1)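 hPBMC, 1×10^6 cells/mL, 24 h compound exposure; RIPA lysis, BCA protein assay, SDS-PAGE, NC membrane immunoblot. Densitometry vs internal control → % protein remaining; degradation % = 100% − remaining; DC50 = conc. at 50% of DMSO band signal.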

IKZF1 = IKZF1 (Homo sapiens (Human), UniProt Q13422+Q96SW2); experiment: Western blot, substrate protein expression in hPBMC: IKZF1; format: cell-based; settings: hPBMC, compound 500 nM, 24 hours, Western blot
Sequence of IKZF1 (Q13422 whole entry): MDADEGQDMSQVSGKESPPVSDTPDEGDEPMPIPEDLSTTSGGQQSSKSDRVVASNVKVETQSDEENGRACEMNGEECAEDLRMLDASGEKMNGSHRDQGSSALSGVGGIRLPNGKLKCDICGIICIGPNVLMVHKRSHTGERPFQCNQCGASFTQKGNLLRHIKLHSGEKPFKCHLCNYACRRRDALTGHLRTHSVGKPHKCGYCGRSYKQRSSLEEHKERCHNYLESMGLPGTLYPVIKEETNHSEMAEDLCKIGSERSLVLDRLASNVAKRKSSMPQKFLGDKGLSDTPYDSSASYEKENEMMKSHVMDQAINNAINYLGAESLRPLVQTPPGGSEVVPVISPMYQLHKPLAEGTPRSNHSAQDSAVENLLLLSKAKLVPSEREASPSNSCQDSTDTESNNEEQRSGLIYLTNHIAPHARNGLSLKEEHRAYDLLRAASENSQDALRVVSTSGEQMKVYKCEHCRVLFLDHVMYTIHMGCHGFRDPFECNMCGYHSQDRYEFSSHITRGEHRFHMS
Sequence of IKZF1 (Q96SW2 whole entry): as the sequence (Q96SW2 whole entry) above
Sequence of IKZF1 (Q16531 whole entry partner): as the sequence (Q16531 whole entry partner) above
In short: as §1

IKZF3 = IKZF3 (Homo sapiens (Human), UniProt Q96SW2+Q9UKT9); experiment: Western blot, substrate protein expression in hPBMC: IKZF3; format: cell-based; settings: hPBMC, compound 500 nM, 24 hours, Western blot
Sequence of IKZF3 (Q9UKT9 whole entry): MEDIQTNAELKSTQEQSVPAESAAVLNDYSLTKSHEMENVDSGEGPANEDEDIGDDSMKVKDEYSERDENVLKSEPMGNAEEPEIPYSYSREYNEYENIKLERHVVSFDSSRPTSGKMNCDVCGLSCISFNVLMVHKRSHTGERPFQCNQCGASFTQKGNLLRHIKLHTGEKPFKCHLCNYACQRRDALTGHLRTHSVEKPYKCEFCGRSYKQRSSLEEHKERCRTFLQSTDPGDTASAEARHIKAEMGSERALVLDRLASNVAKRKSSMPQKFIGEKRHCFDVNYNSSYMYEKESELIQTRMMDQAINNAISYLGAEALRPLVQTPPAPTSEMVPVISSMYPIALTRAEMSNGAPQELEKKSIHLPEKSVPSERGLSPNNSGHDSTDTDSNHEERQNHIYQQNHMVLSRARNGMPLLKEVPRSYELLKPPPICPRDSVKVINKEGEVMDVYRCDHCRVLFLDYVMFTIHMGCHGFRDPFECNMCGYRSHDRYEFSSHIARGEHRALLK
Sequence of IKZF3 (Q96SW2 whole entry): as the sequence (Q96SW2 whole entry) above
Sequence of IKZF3 (Q16531 whole entry partner): as the sequence (Q16531 whole entry partner) above
In short: as §1

Sequence of human Cereblon WT GST-tagged protein (Q96SW2 whole entry): as the sequence (Q96SW2 whole entry) above

| SMILES | pIC50 [1] | substrate protein remaining % GSPT1 (GSPT1) | substrate protein remaining % IKZF1 (IKZF1) | substrate protein remaining % IKZF3 (IKZF3) |
| --- | --- | --- | --- | --- |
| C[C@@H]1CN(C(c2ccccc2)c2ccccc2)CCN1Cc1ccc2c(c1)CN(C1CCC(=O)NC1=O)C2=O (stereo partly drawn) [GT-03571, 3-(5-(((R)-4-benzhydryl-2-methylpiperazin-1-yl)methyl)-1-oxoisoindolin-2-yl)piperidine-2,6-dione] | > 6.30 | A (A represents 0% ≤ substrate protein remaining % ≤ 50%) | B (B represents substrate protein remaining % > 50%) | B (B represents substrate protein remaining % > 50%) |
| C[C@@H]1CN(C(c2ccccc2)c2ccccc2)CCN1Cc1ccc2c(c1F)CN(C1CCC(=O)NC1=O)C2=O (stereo partly drawn) [GT-03574, 3-(5-(((R)-4-benzhydryl-2-methylpiperazin-1-yl)methyl)-4-fluoro-1-oxoisoindolin-2-yl)piperidine-2,6-dione] | 6.00 to 6.30 | A (A represents 0% ≤ substrate protein remaining % ≤ 50%) | B (B represents substrate protein remaining % > 50%) | B (B represents substrate protein remaining % > 50%) |
| O=C1CCC(N2Cc3cc(CN4C5CC4CN(C(c4ccccc4)c4ccccc4)C5)cc(F)c3C2=O)C(=O)N1 (stereo not drawn) [GT-03575, 3-(5-((3-benzhydryl-3,6-diazabicyclo[3.1.1]heptan-6-yl)methyl)-7-fluoro-1-oxoisoindolin-2-yl)piperidine-2,6-dione] | 6.00 to 6.30 | A (A represents 0% ≤ substrate protein remaining % ≤ 50%) | B (B represents substrate protein remaining % > 50%) | B (B represents substrate protein remaining % > 50%) |
| O=C1CCC(N2Cc3c(CN4CCN(C(c5ccc(F)cc5)c5ccc(F)cc5)CC4)cccc3C2=O)C(=O)N1 (stereo not drawn) [GT-03647, 3-(4-((4-(bis(4-fluorophenyl)methyl)piperazin-1-yl)methyl)-1-oxoisoindolin-2-yl)piperidine-2,6-dione] | 6.00 to 6.30 | A (A represents 0% ≤ substrate protein remaining % ≤ 50%) | B (B represents substrate protein remaining % > 50%) | B (B represents substrate protein remaining % > 50%) |
| O=C1CCC(N2Cc3cc(CN4C[C@@H]5C[C@H]4CN5C(c4ccccc4)c4ccccc4)ccc3C2=O)C(=O)N1 (stereo partly drawn) [GT-03721, 3-(5-(((1S,4S)-5-benzhydryl-2,5-diazabicyclo[2.2.1]heptan-2-yl)methyl)-1-oxoisoindolin-2-yl)piperidine-2,6-dione] | > 6.30 | A (A represents 0% ≤ substrate protein remaining % ≤ 50%) | B (B represents substrate protein remaining % > 50%) | A (A represents 0% ≤ substrate protein remaining % ≤ 50%) |
| O=C1CCC(N2Cc3cc(CN4CC5CCC(C4)N5C(c4ccccc4)c4ccccc4)ccc3C2=O)C(=O)N1 (stereo not drawn) [GT-03722, 3-(5-((8-benzhydryl-3,8-diazabicyclo[3.2.1]octan-3-yl)methyl)-1-oxoisoindolin-2-yl)piperidine-2,6-dione] | > 6.30 | A (A represents 0% ≤ substrate protein remaining % ≤ 50%) | A (A represents 0% ≤ substrate protein remaining % ≤ 50%) | A (A represents 0% ≤ substrate protein remaining % ≤ 50%) |
| CC1CN(C(c2ccccc2)c2ccccc2)CC(C)N1Cc1ccc2c(c1)CN(C1CCC(=O)NC1=O)C2=O (stereo not drawn) [GT-03723, 3-(5-((4-benzhydryl-2,6-dimethylpiperazin-1-yl)methyl)-1-oxoisoindolin-2-yl)piperidine-2,6-dione] | 6.00 to 6.30 | A (A represents 0% ≤ substrate protein remaining % ≤ 50%) | B (B represents substrate protein remaining % > 50%) | B (B represents substrate protein remaining % > 50%) |
| O=C1CCC(N2Cc3c(ccc(CN4CC5CCC(C4)N5C(c4ccccc4)c4ccccc4)c3F)C2=O)C(=O)N1 (stereo not drawn) [GT-03725, 3-(5-((8-benzhydryl-3,8-diazabicyclo[3.2.1]octan-3-yl)methyl)-4-fluoro-1-oxoisoindolin-2-yl)piperidine-2,6-dione] | 6.00 to 6.30 | A (A represents 0% ≤ substrate protein remaining % ≤ 50%) | A (A represents 0% ≤ substrate protein remaining % ≤ 50%) | A (A represents 0% ≤ substrate protein remaining % ≤ 50%) |
| CC1CN(C(c2ccccc2)c2ccccc2)CC(C)N1Cc1ccc2c(c1F)CN(C1CCC(=O)NC1=O)C2=O (stereo not drawn) [GT-03726, 3-(5-((4-benzhydryl-2,6-dimethylpiperazin-1-yl)methyl)-4-fluoro-1-oxoisoindolin-2-yl)piperidine-2,6-dione] | > 6.30 | A (A represents 0% ≤ substrate protein remaining % ≤ 50%) | B (B represents substrate protein remaining % > 50%) | B (B represents substrate protein remaining % > 50%) |
| O=C1CCC(N2Cc3c(CN4CCN(C(c5ccccc5)c5ccccn5)CC4)cccc3C2=O)C(=O)N1 (stereo not drawn) [GT-03836, 3-(1-oxo-4-((4-(phenyl(pyridin-2-yl)methyl)piperazin-1-yl)methyl)isoindolin-2-yl)piperidine-2,6-dione] | 6.00 to 6.30 | A (A represents 0% ≤ substrate protein remaining % ≤ 50%) | B (B represents substrate protein remaining % > 50%) | B (B represents substrate protein remaining % > 50%) |
| O=C1CCC(N2Cc3c(ccc(CN4C5CCC4CN(C(c4ccccc4)c4ccccc4)C5)c3F)C2=O)C(=O)N1 (stereo not drawn) [GT-03838, 3-(5-((3-benzhydryl-3,8-diazabicyclo[3.2.1]octan-8-yl)methyl)-4-fluoro-1-oxoisoindolin-2-yl)piperidine-2,6-dione] | 6.00 to 6.30 | A (A represents 0% ≤ substrate protein remaining % ≤ 50%) | A (A represents 0% ≤ substrate protein remaining % ≤ 50%) | A (A represents 0% ≤ substrate protein remaining % ≤ 50%) |
| CC1CN(Cc2ccc3c(c2)CN(C2CCC(=O)NC2=O)C3=O)CC(C)N1C(c1ccccc1)c1ccccc1 (stereo not drawn) [GT-03872, 3-(5-((4-benzhydryl-3,5-dimethylpiperazin-1-yl)methyl)-1-oxoisoindolin-2-yl)piperidine-2,6-dione] | 5.72 to 6.00 | A (A represents 0% ≤ substrate protein remaining % ≤ 50%) | B (B represents substrate protein remaining % > 50%) | A (A represents 0% ≤ substrate protein remaining % ≤ 50%) |
